Data from paper PMC7169845, “Synthesis and Bioactivity of Phthalimide Analogs as Potential Drugs to Treat Schistosomiasis, a Neglected Disease of Poverty” (Pharmaceuticals, 2020).

Structure (SMILES) | melting point [°C]
CC(C)C(c1nc2ccccc2n1Cc1cn(-c2c(F)cccc2F)nn1)N1C(=O)c2ccccc2C1=O (stereo not shown) [6u’, 2-(1-(1-((1-(2,6-Difluorophenyl)-1H-1,2,3-triazol-4-yl)methyl)-1H-benzo[d]imidazol-2-yl)-2-methylpropyl)isoindoline-1,3-dione] | 91 to 93
Cc1ccc2c(c1)C(=O)N(C(CC(C)C)c1nc3ccccc3n1Cc1cn(-c3ccccc3)nn1)C2=O (stereo not shown) [6g, 5-Methyl-2-(3-methyl-1-(1-((1-phenyl-1H-1,2,3-triazol-4-yl)methyl)-1H-benzo[d]imidazol-2-yl)butyl)isoindoline-1,3-dione] | 67 to 69
CCC(C)C(c1nc2ccccc2n1Cc1cn(-c2c(F)c(F)c(F)c(F)c2F)nn1)N1C(=O)c2ccccc2C1=O (stereo not shown) [6t, 2-(2-Methyl-1-(1-((1-(perfluorophenyl)-1H-1,2,3-triazol-4-yl)methyl)-1H-benzo[d]imidazol-2-yl)butyl)isoindoline-1,3-dione] | 86 to 88
CC(c1nc2ccccc2n1Cc1cn(-c2c(F)c(F)c(F)c(F)c2F)nn1)N1C(=O)c2ccccc2C1=O (stereo not shown) [6b’, 2-(1-(1-((1-(Perfluorophenyl)-1H-1,2,3-triazol-4-yl)methyl)-1H-benzo[d]imidazol-2-yl)ethyl)isoindoline-1,3-dione] | 215 to 217
Cc1ccc2c(c1)C(=O)N(C(CC(C)C)c1nc3ccccc3n1Cc1cn(-c3ccc(F)cc3F)nn1)C2=O (stereo not shown) [6j, 2-(1-(1-((1-(2,4-Difluorophenyl)-1H-1,2,3-triazol-4-yl)methyl)-1H-benzo[d]imidazol-2-yl)-3-methylbutyl)-5-methylisoindoline-1,3-dione] | 72 to 74
Cc1ccc2c(c1)C(=O)N(C(CC(C)C)c1nc3ccccc3n1Cc1cn(-c3ccc(C(F)(F)F)cc3)nn1)C2=O (stereo not shown) [6e, 5-Methyl-2-(3-methyl-1-(1-((1-(4-(trifluoromethyl)phenyl)-1H-1,2,3-triazol-4-yl)methyl)-1H-benzo[d]imidazol-2-yl)butyl)isoindoline-1,3-dione] | 218 to 220
Cc1ccc2c(c1)C(=O)N(C(C)c1nc3ccccc3n1Cc1cn(-c3c(F)cccc3F)nn1)C2=O (stereo not shown) [6q’, 2-(1-(1-((1-(2,6-Difluorophenyl)-1H-1,2,3-triazol-4-yl)methyl)-1H-benzo[d]imidazol-2-yl)ethyl)-5-methylisoindoline-1,3-dione] | 166 to 168
CC(C)CC(c1nc2ccccc2n1Cc1cn(-c2c(F)c(F)c(F)c(F)c2F)nn1)N1C(=O)c2ccccc2C1=O (stereo not shown) [6l, 2-(3-Methyl-1-(1-((1-(perfluorophenyl)-1H-1,2,3-triazol-4-yl)methyl)-1H-benzo[d]imidazol-2-yl)butyl)isoindoline-1,3-dione] | 100 to 102
CC(c1nc2ccccc2n1Cc1cn(-c2ccc(F)cc2F)nn1)N1C(=O)c2ccccc2C1=O (stereo not shown) [6d’, 2-(1-(1-((1-(2,4-Difluorophenyl)-1H-1,2,3-triazol-4-yl)methyl)-1H-benzo[d]imidazol-2-yl)ethyl)isoindoline-1,3-dione] | 195 to 197
CC(C)CC(c1nc2ccccc2n1Cc1cn(-c2ccc(F)cc2F)nn1)N1C(=O)c2ccccc2C1=O (stereo not shown) [6o, 2-(1-(1-((1-(2,4-Difluorophenyl)-1H-1,2,3-triazol-4-yl)methyl)-1H-benzo[d]imidazol-2-yl)-3-methylbutyl)isoindoline-1,3-dione] | 126 to 128
Cc1ccc2c(c1)C(=O)N(C(C)c1nc3ccccc3n1Cc1cn(-c3ccc(F)cc3)nn1)C2=O (stereo not shown) [6h’, 2-(1-(1-((1-(4-Fluorophenyl)-1H-1,2,3-triazol-4-yl)methyl)-1H-benzo[d]imidazol-2-yl)ethyl)-5-methylisoindoline-1,3-dione] | 222 to 224
CC(C)C(c1nc2ccccc2n1Cc1cn(-c2c(F)c(F)c(F)c(F)c2F)nn1)N1C(=O)c2ccccc2C1=O (stereo not shown) [6r’, 2-(2-Methyl-1-(1-((1-(perfluorophenyl)-1H-1,2,3-triazol-4-yl)methyl)-1H-benzo[d]imidazol-2-yl)propyl)isoindoline-1,3-dione] | 170 to 172
Cc1ccc2c(c1)C(=O)N(C(C)c1nc3ccccc3n1Cc1cn(-c3ccc(F)cc3F)nn1)C2=O (stereo not shown) [6p’, 2-(1-(1-((1-(2,4-Difluorophenyl)-1H-1,2,3-triazol-4-yl)methyl)-1H-benzo[d]imidazol-2-yl)ethyl)-5-methylisoindoline-1,3-dione] | 206 to 208
Cc1ccc2c(c1)C(=O)N(C(CC(C)C)c1nc3ccccc3n1Cc1cn(-c3c(F)c(F)c(F)c(F)c3F)nn1)C2=O (stereo not shown) [6d, 5-Methyl-2-(3-methyl-1-(1-((1-(perfluorophenyl)-1H-1,2,3-triazol-4-yl)methyl)-1H-benzo[d]imidazol-2-yl)butyl)isoindoline-1,3-dione] | 128 to 130
Cc1ccc2c(c1)C(=O)N(C(C)c1nc3ccccc3n1Cc1cn(-c3ccncc3)nn1)C2=O (stereo not shown) [6n’, 5-Methyl-2-(1-(1-((1-(pyridin-4-yl)-1H-1,2,3-triazol-4-yl)methyl)-1H-benzo[d]imidazol-2-yl)ethyl)isoindoline-1,3-dione] | 236 to 238
Cc1ccc2c(c1)C(=O)N(C(CC(C)C)c1nc3ccccc3n1Cc1cn(-c3c(F)cccc3F)nn1)C2=O (stereo not shown) [6k, 2-(1-(1-((1-(2,6-Difluorophenyl)-1H-1,2,3-triazol-4-yl)methyl)-1H-benzo[d]imidazol-2-yl)-3-methylbutyl)-5-methylisoindoline-1,3-dione] | 71 to 73

Structure (SMILES) | melting point [°C]
CC(C)CC(c1nc2ccccc2n1Cc1cn(-c2ccccc2F)nn1)N1C(=O)c2ccccc2C1=O (stereo not shown) [6n, 2-(1-(1-((1-(2-Fluorophenyl)-1H-1,2,3-triazol-4-yl)methyl)-1H-benzo[d]imidazol-2-yl)-3-methylbutyl)isoindoline-1,3-dione] | 107 to 109
CC(C)CC(c1nc2ccccc2n1Cc1cn(-c2c(F)cccc2F)nn1)N1C(=O)c2ccccc2C1=O (stereo not shown) [6p, 2-(1-(1-((1-(2,6-Difluorophenyl)-1H-1,2,3-triazol-4-yl)methyl)-1H-benzo[d]imidazol-2-yl)-3-methylbutyl)isoindoline-1,3-dione] | 198 to 200
Cc1ccc2c(c1)C(=O)N(C(C)c1nc3ccccc3n1Cc1c[nH]nn1)C2=O (stereo not shown) [6k’, 2-(1-(1-((1H-1,2,3-Triazol-4-yl)methyl)-1H-benzo[d]imidazol-2-yl)ethyl)-5-methylisoindoline-1,3-dione] | 100 to 102
CCC(C)C(c1nc2ccccc2n1Cc1cn(-c2ccncc2)nn1)N1C(=O)c2ccccc2C1=O (stereo not shown) [6u, 2-(2-Methyl-1-(1-((1-(pyridin-4-yl)-1H-1,2,3-triazol-4-yl)methyl)-1H-benzo[d]imidazol-2-yl)butyl)isoindoline-1,3-dione] | 101 to 103
CCC(C)C(c1nc2ccccc2n1Cc1cn(-c2ccc(F)cc2F)nn1)N1C(=O)c2ccc(C)cc2C1=O (stereo not shown) [6r, 2-(1-(1-((1-(2,4-Difluorophenyl)-1H-1,2,3-triazol-4-yl)methyl)-1H-benzo[d]imidazol-2-yl)-2-methylbutyl)-5-methylisoindoline-1,3-dione] | 89 to 91
CCC(C)C(c1nc2ccccc2n1Cc1cn(-c2ccccc2F)nn1)N1C(=O)c2ccc(C)cc2C1=O (stereo not shown) [6q, 2-(1-(1-((1-(2-Fluorophenyl)-1H-1,2,3-triazol-4-yl)methyl)-1H-benzo[d]imidazol-2-yl)-2-methylbutyl)-5-methylisoindoline-1,3-dione] | 114 to 116
Cc1ccc2c(c1)C(=O)N(C(C)c1nc3ccccc3n1Cc1cn(-c3ccccc3)nn1)C2=O (stereo not shown) [6l’, 5-Methyl-2-(1-(1-((1-phenyl-1H-1,2,3-triazol-4-yl)methyl)-1H-benzo[d]imidazol-2-yl)ethyl)isoindoline-1,3-dione] | 185 to 187
CC(C)CC(c1nc2ccccc2n1Cc1cn(-c2ccc(C(F)(F)F)cc2)nn1)N1C(=O)c2ccccc2C1=O (stereo not shown) [6m, 2-(3-Methyl-1-(1-((1-(4-(trifluoromethyl)phenyl)-1H-1,2,3-triazol-4-yl)methyl)-1H-benzo[d]imidazol-2-yl)butyl)isoindoline-1,3-dione] | 216 to 218
Cc1ccc(-n2cc(Cn3c(C(C)N4C(=O)c5ccc(C)cc5C4=O)nc4ccccc43)nn2)cc1 (stereo not shown) [6i’, 5-Methyl-2-(1-(1-((1-(p-tolyl)-1H-1,2,3-triazol-4-yl)methyl)-1H-benzo[d]imidazol-2-yl)ethyl)isoindoline-1,3-dione] | 216 to 218
CCC(C)C(c1nc2ccccc2n1Cc1cn(-c2c(F)c(F)c(F)c(F)c2F)nn1)N1C(=O)c2ccc(C)cc2C1=O (stereo not shown) [6s, 5-Methyl-2-(2-methyl-1-(1-((1-(perfluorophenyl)-1H-1,2,3-triazol-4-yl)methyl)-1H-benzo[d]imidazol-2-yl)butyl)isoindoline-1,3-dione] | 196 to 198
CC(C)C(c1nc2ccccc2n1Cc1cn(-c2ccccc2F)nn1)N1C(=O)c2ccccc2C1=O (stereo not shown) [6s’, 2-(1-(1-((1-(2-Fluorophenyl)-1H-1,2,3-triazol-4-yl)methyl)-1H-benzo[d]imidazol-2-yl)-2-methylpropyl)isoindoline-1,3-dione] | 115 to 117
Cc1ccc(-n2cc(Cn3c(C(CC(C)C)N4C(=O)c5ccc(C)cc5C4=O)nc4ccccc43)nn2)cc1 (stereo not shown) [6b, 5-Methyl-2-(3-methyl-1-(1-((1-(p-tolyl)-1H-1,2,3-triazol-4-yl)methyl)-1H-benzo[d]imidazol-2-yl)butyl)isoindoline-1,3-dione] | 160 to 162
CC(c1nc2ccccc2n1Cc1cn(-c2ccccc2)nn1)N1C(=O)c2ccccc2C1=O (stereo not shown) [6a’, 2-(1-(1-((1-Phenyl-1H-1,2,3-triazol-4-yl)methyl)-1H-benzo[d]imidazol-2-yl)ethyl)isoindoline-1,3-dione] | 187 to 189
CC(C)C(c1nc2ccccc2n1Cc1cn(-c2ccc(F)cc2F)nn1)N1C(=O)c2ccccc2C1=O (stereo not shown) [6t’, 2-(1-(1-((1-(2,4-Difluorophenyl)-1H-1,2,3-triazol-4-yl)methyl)-1H-benzo[d]imidazol-2-yl)-2-methylpropyl)isoindoline-1,3-dione] | 100 to 102
Cc1ccc2c(c1)C(=O)N(C(C)c1nc3ccccc3n1Cc1cn(-c3ccccc3F)nn1)C2=O (stereo not shown) [6o’, 2-(1-(1-((1-(2-Fluorophenyl)-1H-1,2,3-triazol-4-yl)methyl)-1H-benzo[d]imidazol-2-yl)ethyl)-5-methylisoindoline-1,3-dione] | 185 to 187
